Measured values reported in US7858585B2, “Hydrogels and uses thereof” (University of Delaware, priority 2005, dated 2010).
Square brackets hold non-standard residues; d marks the D form. Ends that are not written are not given here. Peptide text beside a SMILES is read from it.

Key:
[1] = Temperature dependent CD of peptide folding and self-assembly (Tgel), with rheology of thermal reversibility; format: physicochemical; conditions: for reversibility of thermally induced hydrogelation: CD 150 μM and rheology 2 wt %, heating/cooling cycles 5-80° C.; for Tgel, temperature at which folding and consequent self-assembly is triggered: 150 μM peptide, 125 mM Borate, 10 mM NaCl, pH 9, CD [θ]218
Source text: At low temperature MAX1 is unfolded (and unassembled). At high temperature MAX1 folds into beta-sheet (and consequently self-assembles into a hydrogel). […] The relative hydrophobicity is MAX1>MAX2>MAX3 due to the isostructural but less hydrophobic substitutions of threonine for valine at the underlined positions. The most hydrophobic folds at the lowest temperature while the least hydrophobic folds at the highest temperature. This is a direct manifestations of the molecular parameter manipulations described in FIG. 2. Also shown are the calculated free energy of transfer of each corresponding unfolded peptide having an overall +8 charge state from octanol into water at 25° C. MAX1, the most hydrophobic has the highest free energy of transfer equal to 7.60 kcal/mol. MAX2 has a calculated transfer free energy of 6.88 kcal/mol, while the least hydrophobic MAX3 has the lowest energy of transfer of 6.45 kcal/mol.
This allows the characteristics of the hydrogels of the invention to be varied by adjusting these parameters. […] It is well known that water is better able to solvate hydrophobic groups at low temperatures. This phenomenon has been used to describe the cold denaturation of proteins where some proteins unfold at low temperatures, exposing their hydrophobic interiors to aqueous solvent. A 150 μM aqueous solution of MAX1 unfolds when cooled below room temperature. The CD spectrum at 5° C. is consistent with random coil conformation, FIG. 9A. However, warming the solution to 40° C. results in a spectra consistent with β-sheet structure. […] In fact, previous studies involving the pH induced folding and self-assembly of MAX1 were performed at 20° C. At this temperature, folding and self-assembly are slow enough to be conveniently monitored. At higher temperatures, folding and self-assembly leading to hydrogelation is fast (instantaneous to seconds depending on concentration). If the formation of hydrophobic interactions affects the folding and self-assembly process, then altering the hydrophobic content of MAX1 should affect the temperature at which folding is triggered. […] MAX2 is identical to MAX1 except that one valine residue has been replaced with the isostructural, but less hydrophobic residue, threonine. In MAX3, two valines are replaced with threonine residues. The resulting peptides vary in their hydrophobicity as evident by comparing calculated free energies of transfer from octanol into water, FIG. 9. […] Thus, the formation of hydrophobic contacts influences folding and self-assembly. […] Thus, the characteristics of the hydrogels of the invention can be varied by adjusting the amino acid residues of the peptides used to form the hydrogels to increase or decrease the hydrophobicity of the amino acid residues used.
There are reports of large polymers that are thermally responsive. The present invention provides the first system that employs temperature triggered folding to induce self-assembly. […] Heating the solution to 80° C. results in a spectra consistent with β-sheet structure. […] The temperatures used in both CD and rheology bracket the temperature (Tgel=60° C., FIG. 9) at which folding and consequent self-assembly is triggered. […] For example, free flowing peptide solutions could be prepared at room temperature and administered in vivo where the temperature of the body could induce gelation. Some Poly-N-isopropylacrylamide polymers have been engineered have been engineered to undergo such transitions ultimately affording extracellular-like scaffolds for tissue regeneration. The above studies support the idea that the formation of hydrophobic interactions are important. MAX1-3 all contain valines and threonines at hydrogen bonded positions. At these positions, their side chains prefer to adopt a trans rotamer. […]

[2] = Folding (CD) and hydrogelation of sequence variants under folding conditions; format: physicochemical; conditions: for conformation by CD under folding conditions: 150 μM, pH 9.0, 125 mM Borate, 10 mM NaCl
Source text: In some embodiments of the invention, various functionalities (e.g., cell adhesion epitopes, receptor agonists, receptor antagonists, ligands, small molecules, etc) may be incorporated into the hairpin hydrogel scaffold. One way to accomplish this would be to functionalize one or more amino acid side chains of the peptide. […] In some embodiments, the moieties to be incorporated at a particular side chain may be much larger (e.g. RGD-based motifs) and may contain charged residues. MAX5 (VKVKVKVKV^DPPTKVKEKVKV-NH2) was prepared to investigate the possibility of incorporating a charged residue on the hydrophobic face of MAX1. The sequence contains a glutamic acid residue at position 16 which is negatively charged at basic pH where MAX1 normally folds and assembles. […] However, alterations to the hydrophilic face of MAX1 are well tolerated. Sequences in which one or two lysine residues are replaced with other residues such as cysteine, serine, and glutamic acid are capable of folding and self-assembly into rigid hydrogels (data not shown).
The peptides described above contain identical turn sequences, namely (-V^DPPT-). This sequence has a strong propensity to form a type II′ turn and therefore helps to drive intramolecular folding. Since intramolecular folding must occur prior to self-assembly, alterations to this turn sequence that inhibit turn structure formation can be used to modulate intramolecular folding and self-assembly leading to hydrogelation. MAX9 was prepared to probe the importance of the turn region (VKVKVKVKV^LPPTKVKVKVKV-NH2). MAX9 is identical to MAX1 with the exception that the ^DPro at position ten has been replaced with ^LPro. Unlike the dipeptide ^DPro^LPro contained within MAX1 that favors type II′ turn formation, the ^LPro^LPro motif of MAX9 favors an open conformation. The two strands emanating from an open ^LPro^LPro conformation would be projected in opposite directions. Thus, intramolecular folding resulting in β-hairpin formation would be highly unfavored. […]

[3] = cited from earlier work
[4] = test system: fibroblasts (NIH 3T3, mouse); assay: Fibroblast adhesion and proliferation on hydrogel by optical microscopy; format: cell-based; conditions: fresh media provided; assay stopped after 1 month
Description: These cells were used as a model system because of their importance in connective tissue development and their easily distinguished morphology when adhered to the hydrogel scaffold. Qualitative studies were performed in which cells were added to either polystyrene control wells or wells containing a uniform slab (3 mm thick) of MAX1-hydrogel. Cell adhesion was qualitatively monitored via direct observation of cell spreading after four hours from the time of initial cell seeding by optical microscopy (a quantitative cell attachment assay is described below, see also Akiyama, S. K. Functional analysis of cell adhesion: Quantitation of cell-matrix attachment, 2002; Vol. 69, pp 281-296). Non-adhered fibroblasts have rounded morphologies and adhered fibroblasts have spread morphologies Proliferation was measured both qualitatively by optical microscopy and quantitatively by a ^3H thymidine-based cell seeding assay as described below. Hydrogels were prepared in 48 well tissue culture plates by either one of the following protocols. Protocol 1: MAX1 was dissolved in water (resulting in an acidic solution, pH˜5) and an equal volume of buffer (pH 9, 250 mM borate, 20 mM NaCl) was added at room temperature to induce folding/self-assembly resulting in a 2 wt % hydrogel. The resulting gel was bathed in DMEM containing 10% calf serum and 10 mg/mL gentamicin. […]

**Q.** What does the source list for VKVKVKVK V^DPPT KVKTKVKV-NH2 [MAX2]?
**A.** reversibility of thermally induced hydrogelation [1]: not reversible; temperature above which peptide folds/self-assembles ([1]; pH 9 (10 mM NaCl)): greater than 45 °C; temperature below which peptide is unfolded ([1]; pH 9 (10 mM NaCl)): below 40 °C

**Q.** With VKVKVKTK V^DPPT KVKTKVKV-NH2 [MAX3] as the molecule, how does the “Tgel, temperature at which folding and consequent self-assembly is triggered” value [1] read?
**A.** 60 °C

**Q.** And the “reversibility of thermally induced hydrogelation” value [1]?
**A.** thermally reversible

**Q.** Which “Tgel, temperature at which folding and consequent self-assembly is triggered” value [1] does the source give for KVKVKVKV K^DPPS VKVKVKVK-NH2 [MAX4] here?
**A.** 20 °C

**Q.** For “VKVKVKVK VPPT KVKVKVKV-NH2 (VKVKVKVKVPPTKVKVKVKV-NH2) [MAX9]”, which “conformation by CD under folding conditions” value [2] is on record?
**A.** only random coil

**Q.** And the hydrogelation ([2]; folding conditions, 2 wt % solutions)?
**A.** failed to undergo hydrogelation

**Q.** With -DRKADGYIDFEE- as the molecule, how does the “Kd for Ca(II)” value ([3]; linear peptide, calcium binding loop of Troponin C) read?
**A.** low mM

**Q.** Which “time cells remain viable on gel” value [4] does the source give for `CC(C)[C@H](N)C(=O)N[C@@H](CCCCN)C(=O)N[C@H](C(=O)N[C@@H](CCCCN)C(=O)N[C@H](C(=O)N[C@@H](CCCCN)C(=O)N[C@H](C(=O)N[C@@H](CCCCN)C(=O)N[C@H](C(=O)N1CCC[C@@H]1C(=O)N1CCC[C@H]1C(=O)N[C@H](C(=O)N[C@@H](CCCCN)C(=O)N[C@H](C(=O)N[C@@H](CCCCN)C(=O)N[C@H](C(=O)N[C@@H](CCCCN)C(=O)N[C@H](C(=O)N[C@@H](CCCCN)C(=O)N[C@H](C(N)=O)C(C)C)C(C)C)C(C)C)C(C)C)[C@@H](C)O)C(C)C)C(C)C)C(C)C)C(C)C` [MAX1, VKVKVKVK V^DPPT KVKVKVKV-NH2] (H-VKVKVKVKV[dP]PTKVKVKVKV-NH2) here?
**A.** ≥ 1 month

**Q.** Which “conformation by CD under folding conditions” value [2] does the source give for VKVKVKVK V^DPPT KVKEKVKV-NH2 [MAX5] here?
**A.** random coil

**Q.** With `NC(=O)CN1CCN(CC(N)=O)CCN(CC(N)=O)CCN(CC(N)=O)CC1` [DOTAM] as the molecule, how does the Kd ([3]; read-out: Kd for calcium) read?
**A.** 29 nM
